Columns and labels:
Assay in all cases: HPLC of desulfoglucosinolates, conversion to 3-butenyl glucosinolate
Assay type in all cases: biochemical
Settings in all cases: 10 mM 2-oxoglutarate, 10 mM ascorbate, 200 uM FeSO4, 200 mM sucrose, 28 °C, 4 h
BrAOP2.3 = biological target: T1, BrAOP2.3 (Brassica rapa, UniProt M4DPT0)
T1 construct: full-length 428 aa, N-terminal thioredoxin/His fusion (pET-32a), E. coli BL21(DE3), Ni-NTA; chromosome A02
T1 sequence (M4DPT0 1-428): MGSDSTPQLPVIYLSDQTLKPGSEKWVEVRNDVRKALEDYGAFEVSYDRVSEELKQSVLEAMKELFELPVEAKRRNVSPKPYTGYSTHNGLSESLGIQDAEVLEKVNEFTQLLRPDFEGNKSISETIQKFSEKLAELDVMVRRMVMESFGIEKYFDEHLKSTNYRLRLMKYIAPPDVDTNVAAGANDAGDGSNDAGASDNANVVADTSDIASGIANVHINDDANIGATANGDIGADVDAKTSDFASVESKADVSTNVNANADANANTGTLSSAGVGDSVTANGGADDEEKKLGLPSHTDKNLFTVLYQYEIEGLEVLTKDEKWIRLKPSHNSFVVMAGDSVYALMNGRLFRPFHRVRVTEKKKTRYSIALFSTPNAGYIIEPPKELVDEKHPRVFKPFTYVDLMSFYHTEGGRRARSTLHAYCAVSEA

BrAOP2.1 [1] = biological target: T2, BrAOP2.1 (Brassica rapa, UniProt M4EZD7)
T2 construct: full-length 439 aa, N-terminal thioredoxin/His fusion (pET-32a), E. coli BL21(DE3), Ni-NTA; chromosome A09
T2 sequence (M4EZD7 1-439): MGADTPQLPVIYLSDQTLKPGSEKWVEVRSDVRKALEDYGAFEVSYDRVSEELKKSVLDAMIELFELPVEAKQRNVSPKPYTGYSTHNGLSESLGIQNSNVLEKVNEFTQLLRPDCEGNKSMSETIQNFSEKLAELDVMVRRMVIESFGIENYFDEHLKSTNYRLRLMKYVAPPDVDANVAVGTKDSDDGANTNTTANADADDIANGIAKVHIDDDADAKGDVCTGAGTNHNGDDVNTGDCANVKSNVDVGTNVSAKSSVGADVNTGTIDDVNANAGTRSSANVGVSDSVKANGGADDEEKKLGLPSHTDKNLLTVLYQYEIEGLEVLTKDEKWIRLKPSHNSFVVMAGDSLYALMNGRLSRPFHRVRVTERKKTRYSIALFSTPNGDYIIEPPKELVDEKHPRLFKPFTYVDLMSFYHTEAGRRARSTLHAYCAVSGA

BrAOP2.1 [2] = biological target: T3, BrAOP2.1 (Brassica rapa, UniProt M4EZD7, H308L)
T3 construct: full-length 439 aa, N-terminal thioredoxin/His fusion (pET-32a), E. coli BL21(DE3), Ni-NTA; chromosome A09
T3 sequence (M4EZD7 entry or part of it H308L): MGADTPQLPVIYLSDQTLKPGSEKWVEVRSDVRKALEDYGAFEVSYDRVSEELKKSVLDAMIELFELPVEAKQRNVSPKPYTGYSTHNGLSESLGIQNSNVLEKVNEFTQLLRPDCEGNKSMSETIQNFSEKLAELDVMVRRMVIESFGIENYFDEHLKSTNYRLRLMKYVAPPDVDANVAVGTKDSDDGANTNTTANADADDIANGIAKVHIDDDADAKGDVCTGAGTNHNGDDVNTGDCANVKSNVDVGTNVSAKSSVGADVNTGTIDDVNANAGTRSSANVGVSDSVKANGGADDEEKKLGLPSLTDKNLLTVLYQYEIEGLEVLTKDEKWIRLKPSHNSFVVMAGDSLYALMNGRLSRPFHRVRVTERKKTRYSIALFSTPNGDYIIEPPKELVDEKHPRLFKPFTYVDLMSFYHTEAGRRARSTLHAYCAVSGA

For C[S+]([O-])CCCC/C(=N/OS(=O)(=O)O)S[C@@H]1O[C@H](CO)[C@@H](O)[C@H](O)[C@H]1O (stereo partly drawn) [glucoraphanin], the “HPLC of desulfoglucosinolates, conversion to 3-butenyl glucosinolate” value (shortened to “HPLC of desulfoglucosinolates”) (BrAOP2.3) was “all three BrAOP2 proteins successfully catalysed the conversion of GRA to NAP”, the “HPLC of desulfoglucosinolates” value (BrAOP2.1 [1]) was “all three BrAOP2 proteins successfully catalysed the conversion of GRA to NAP” and the “HPLC of desulfoglucosinolates” value (BrAOP2.1 [2]) was “the purified H308L mutant enzyme was shown to still catalyse the conversion of GRA”.

From article PMC4588880, “Three genes encoding AOP2, a protein involved in aliphatic glucosinolate biosynthesis, are differentially expressed in Brassica rapa” (Journal of Experimental Botany, 2015)
